Entries after “also recorded” stand apart in the source; their conditions may differ.
Assays:
[1] = Safety (treatment-related adverse events), CC-90010-GBM-001; type: in vivo, human
Text: (§1) The primary objectives of the study in this example were determination of tumor tissue concentration and plasma pharmacokinetics (PK) of Compound A. The secondary and exploratory objectives included safety, antitumor activity, cerebrospinal fluid concentration, and pharmacodynamics (PD).
The study described in this example (CC-90010-GBM-001 study/NCT04047303) enrolled patients with progressive or recurrent astrocytoma or recurrent glioblastoma who have failed radiation and chemotherapy, and who are candidates for surgical tumor resection as part of their salvage regimen.
(§2) Patients were treated with Compound A at 30 mg daily on Day 1 to Day 4 prior to undergoing indicated tumor resection and to maintain platelet count above the minimum of […] recommended for surgery (Part A, preoperative treatment). Following recovery from surgery and a minimum of 4 weeks from the first dose of Compound A, subjects who were fit to continue were treated with Compound A at 45 mg on a 4 days on/24 days off schedule (180 mg per 28-day cycle). Maintenance treatment continued until disease progression, unacceptable toxicity, or withdrawal of consent.

CCR1 RNA = test: Blood CCR1 RNA pharmacodynamics, CC-90010-GBM-002; type: in vivo, human; conditions: for Day 4 blood CCR1 RNA downregulation: 2-4 hours post-dose
Text: The primary objectives of the study in this example were to establish the safety, maximum tolerated dose (MTD), and recommended phase 2 dose (RP2D) of Compound A. The preliminary efficacy, pharmacokinetics, and pharmacodynamics were also investigated.
The study described in this example (CC-90010-GBM-002/NCT04324840) is a phase 1B dose-finding study investigating standard of care of Compound A in combination with TMZ with or without radiotherapy (RT) in subjects with newly diagnosed GBM. Part A of the study is escalating the oral doses of Compound A in combination with adjuvant TMZ to estimate the MTD and/or the RP2D of Compound A as adjuvant therapy and escalating the oral doses of Compound A in combination with concomitant TMZ+radiotherapy (RT) to estimate the MTD and/or the RP2D of Compound A as concomitant therapy. Part B of the study is the safety and efficacy of Compound A administered at or below the MTD determined for the adjuvant therapy (AT) and concomitant therapy (CT).
The interim results for adjuvant Compound A+temozolomide are described. For adjuvant therapy, patients received Compound A at 15, 30, or 45 mg daily (4 days on/24 days off)+temozolomide administered per label for 6 cycles (150 mg/m^2 at Cycle 1 then 200 mg/m^2; QD for 5 days), followed by Compound A at 45 mg monotherapy daily (4 days on/24 days off).

[2] = tested on: CCR1 (C-C chemokine receptor type 1) mRNA; test: Blood CCR1 mRNA pharmacodynamics, CC-90010-GBM-001; type: in vivo, human
Protocol: as §1, §2
Blood HEXIM1 (hexamethylene bis-acetamide-inducible protein 1) mRNA was increased at 72-96 hours following first dose, and the percentage increase correlated with plasma concentration of Compound A at surgery. Tumor HEXIM1 RNA increased in 10 of 11 patients. Additionally, blood HEXIM1 mRNA expression was increased in all subjects at 72-96 hours following the first dose. Percentage HEXIM1 increase was related to plasma Compound A concentration at biopsy.

[3] = Brain tumor tissue, plasma and CSF concentration at resection, CC-90010-GBM-001; type: in vivo, human
Protocol: as §1, §2
The geometric mean peak of Compound A plasma concentration on Day 4 was 1.90 μM, and the median time to peak concentration was 1.75 hours. The median time from the day 4 dose of Compound A to resection was 23 hours (range, 4.6-31.3). […] At the time of resection, the geometric mean concentrations of Compound A in plasma and brain tumor tissue were 1.02 and 0.74 μM, respectively. Geometric mean free Compound A concentration in brain tissue was calculated to be 0.028 μM. Geometric mean Compound A concentration in CSF (cerebrospinal fluid) was 0.14 μM, and the mean CSF:plasma ratio was 0.17. None of the brain tumor tissue samples for PK analyses was confirmed to comprise homogeneous contrast-enhancing or non-enhancing tumor tissue, precluding measurement in these subgroups.
At Cycle 1 Day 4, the concentration of Compound A was measured in resected brain tumor from 20 subjects at 6 to 24-hour post dose. At the time of resection (N=19), the mean (f SDev) concentration of Compound A in plasma was 397 f 77.78 ng/mL (geometric mean: 389.23 ng/mL; coefficient of variation: 20.1%). The mean ratio of compound concentration in the resected brain tissue to compound concentration in plasma is 0.84 f 0.25 for 19 of the 20 subjects.

[4] = Safety (TRAEs/TEAEs), CC-90010-GBM-002 Parts A and B; type: in vivo
Text: This was then followed by a break in treatment therapy, e.g., from 1 to up to 4 weeks. […] Adjuvant therapy cycles were repeated from 2 to 6 times. After adjuvant therapy, was a monotherapy treatment.
The demographics and characteristics of treated patients are described in the below table.

## Cn1cc(-c2cc(S(C)(=O)=O)ccc2OCC2CC2)c2ccccc2c1=O [Compound A, 4-[2-(cyclopropylmethoxy)-5-methylsulfonylphenyl]-2-methylisoquinolin-1-one]
[1]; N=20
  patients with Grade 3/4 TRAEs: 45%
  patients with grade 3/4 thrombocytopenia: 25%
  patients with serious TRAEs (hemiparesis and lethargy): one
  patients with ≥1 treatment-related adverse event (TRAE): 90%
[1]; in vivo
  tolerability: well tolerated
CCR1 RNA; 15-mg group
  Day 4 blood CCR1 RNA downregulation: downregulated partially
CCR1 RNA; 30-mg group
  Day 4 blood CCR1 RNA downregulation: ≥ 50%
CCR1 RNA; following first and last dose of ≥30 mg, cycle 1, CC-90010-GBM-002 (FIG. 6)
  CCR1 downregulation: ≥ 50%
[2]; after Dose 4
  Blood CCR1 mRNA reduction: ≥ 50%
[2]; after Dose 4, standard deviation 28.5
  Blood CCR1 mRNA, % of baseline: 45.8%
[2]; following first and last dose of ≥30 mg, cycle 1, CC-90010-GBM-001 (FIG. 5)
  CCR1 downregulation: ≥ 50%
[3]; at the time of resection
  geometric mean concentration in brain tumor tissue: 0.74 µM
  geometric mean concentration in plasma: 1.02 µM
[3]; at the time of resection (N=19)
  geometric mean concentration in plasma: 389.23 ng/mL
[3]; calculated
  Geometric mean free concentration in brain tissue: 0.028 µM
[3]; human, brain tumor tissue, 30 mg, as stated in the comparison with other agents, read-out: brain tumor tissue:plasma ratio
  Kp: 0.14
[3]; in vivo
  Geometric mean concentration in CSF (cerebrospinal fluid): 0.14 µM
  mean CSF:plasma ratio: 0.17
[3]; patients with recurrent high-grade glioma
  BBB / brain tumor tissue penetration: found to penetrate the BBB and was detected in brain tumor tissue; also recorded: good tumor tissue penetration; also recorded: high brain penetrance
[4]; Part A adjuvant cohort
  patients with Grade 3/4 TRAEs: 56%
  patients with TEAEs leading to treatment discontinuation: 11%
  patients with any-grade gastrointestinal TRAEs: 78%
  patients with grade 3/4 diarrhea: one
  patients with thrombocytopenia TRAE, any grade: 72%
  patients with thrombocytopenia TRAE, grade 3/4: 50%
[4]; Part A adjuvant cohort (Compound A + TMZ)
  patients with any-grade TRAEs: 94%
[4]; Part A concomitant cohort
  patients with Grade 3/4 TRAEs: 64%
  patients with TEAEs leading to treatment discontinuation: 7%
  patients with gastrointestinal TRAEs: 93%
  patients with grade 3/4 TRAE of diarrhea: 7%
  patients with nausea, any-grade TRAE: 79%
  patients with thrombocytopenia, any grade: 71%
  patients with thrombocytopenia, grade 3/4: 50%
[4]; Part A concomitant cohort (Compound A + TMZ + RT)
  patients with any-grade TRAEs: 100%
[4]; Part A, both cohorts
  treatment-related deaths: no treatment-related deaths
[4]; Part B
  patients with Grade 3/4 TRAEs related to Compound A: 29%
  patients with Grade 3/4 neutropenia related to Compound A: 18%
  patients with Grade 3/4 thrombocytopenia related to Compound A: 18%
[4]; Part B arm A
  patients with TRAE leading to treatment discontinuation: 4%
  patients with TRAEs related to Compound A: 86%
  patients with diarrhea related to Compound A: 43%
  patients with nausea related to Compound A: 46%
  patients with thrombocytopenia related to Compound A: 46%
[4]; adjuvant Compound A plus TMZ and concomitant Compound A plus TMZ and RT
  tolerability in long-term follow-up: well tolerated
